These results are taken from patent publication US6673937B2, “Syntheses and methods of use of new antimitotic agents” (The University of Pittsburgh, priority 2000, dated 2004).

One assay relates to fungi. The conditions noted are these: cited from earlier work.
Assay [1] deals with tsFT210 cells. As to the kind of experiment: Flow cytometry, G2/M arrest in tsFT210 cells. It is filed as cell-based, mouse. The conditions noted are these: 6 hours. The method, then: Oncogene 18:6989-6996, Th′ng JP, Wright PS, Hamaguchi J, Lee MG, Norbury CJ, Nurse P and Bradbury EM (1990) The FT210 cell line is a mouse G2 phase mutant with a temperature-sensitive CDC2 gene product. Cell 63:313-324.). Cell proliferation was blocked at G2 phase by incubation at 39.4° C. for 17 h. The synchronized cells were then released by re-incubating at 32.0° C. and treated immediately with 0-10 μM SR-7, 1 μM nocodazole or 100 EM SC-ααδ9, respectively, to probe for G2/M arrest. […] The harvested cells were stained with a solution containing 50 μg/ml propidium iodide and 250 μg/ml RNase A. Flow cytometry analysis was conducted with a Becton Dickinson FACS Star (Franklin Lakes, N.J.). […] This G2/M retention at 4C is probably due to the extended cell cycle blockage at 39.4° C. (Osada H, Cui CB, Onose R and Hanaoka F (1997) Screening of cell cycle inhibitors from microbial metabolites by a bioassay using a mouse cdc2 mutant cell line, tsFT210. Bioorg Med Chem 5:193-203). […] SC-ααδ9 is an inhibitor of the Cdc25 family of phosphatases that controls cell cycle checkpoints (Rice RL, Rusnak JM, Yokokawa F, Yokokawa S, Messner DJ, Boynton AL, Wipf P and Lazo JS (1997) A targeted library of small molecule, tyrosine and dual specificity phosphatase inhibitors derived from a rational core design and random side chain variation. Biochemistry 36:15965-15974).

Assay [2] concerns tsFT210 cells. The assay can be described thus: Flow cytometry, G1 transition in tsFT210 cells. It is filed as cell-based, mouse. The note with it: 100 μM, additional 6 hours. (Flow cytometry measures light scatter and fluorescence of single cells or particles in a stream.)
Another assay relates to Cdk1. As to the kind of experiment: Western blotting for Cdk1 phosphorylation status in tsFT210 cells. It is filed as cell-based, mouse. The note with it: 6 hours. The method, then:
tsFT210 cells were harvested using the same procedure for cell synchronizing and drug exposure as described above for the G2/M flow cytometric analysis. The protein lysates were analyzed by Western blotting for Cdk1 as described previously (Tamura K, Southwick EC, Kerns J, Rosi K, Carr BI, Wilcox C and Lazo JS (2000) Cdc25 inhibition and cell cycle arrest by a synthetic thioalkyl vitamin K analogue. Cancer Res 60:1317-1325.). The inventors used Cdk1 isolated from human MCF-7 cells to assay for in vitro inhibition of enzyme activity because of available antibodies and convenience. Asynchronous cells grown at 37° C. in 5% CO2 in DMEM containing 10% fetal bovine serum were treated with lysis buffer and harvested as previously described (Vogt A, Wang AS, Johnson CS, Fabisiak JP, Wipf P and Lazo JS (2000) In vivo antitumor activity and induction of insulin-like growth factor-1 resistant apoptosis by SC-ααδ9. J Pharmacol Exptl Therap 292:530-537.). Cdk1 kinase activity assay was performed as previously described (Yu L, Orlandi L, Wang P, Orr MS, Senderowicz AM, Sausville EA, Silvestrini R, Watanabe N, Piwnica-Worms H, O° Connor PM (1998) UCN-01 arogates G2 arrest through a Cdc2-dependent pathway that is associated with inactivation of the WeelHu kinase and activation of the Cdc25C phosphatase. J Biol Chem 273: 33455-33464.). […] Histone H1 was separated from other proteins by SDS-PAGE and analyzed for incorporation of radioactive phosphate with a Molecular Dynamics STORM 860 Phospholmager (Sunnyvale, CA).
The major controlling molecule for G2/M transition is the cyclin dependent kinase, Cdk1, whose cellular activity is tightly regulated by phosphorylation (Pines J (1999) Four-dimensional control of the cell cycle. Nature Cell Biol 1:E73-79., Hunter T and Pines J (1994) Cyclins and cancer II: cyclin D and CDK inhibitors come of age. Cell 79:573-582). […] The protein lysates were analyzed by Western blotting for Cdk1 content and phosphorylation status as described elsewhere herein. […]

The test system of assay [3] is bovine brain tubulin. The assay can be described thus: Inhibition of [3H]colchicine binding. The note with it: Mean ± SEM, N = 9. The method, then: Using methods described previously (Verdier-Pinard P, Lai J-Y, Yoo H-D, Yu J, Marquez B, Nagle DG, Nambu M, White JD, Falck JR, Gerwick WH, Day BW and Hamel E (1998) Structure-activity analysis of the interaction of curacin A, the potent colchicine site antimitotic agent, with tubulin and effects of analogs on the growth of MCF-7 breast cancer cells. Mol Phannacol 53:62-76.). 5,μM [^3H]colchicine was incubated with either 5% DMSO vehicle or compound (5 or 50 μM) at 37° C. for 15 min with 1 μM tubulin in the presence of 1 M monosodium glutamate, 0.1 M glucose-1-phosphate, 1 mM MgCl2, 1 mM GTP and 0.5 mg/ml bovine serum albumin. The solutions were filtered through two stacks of DEAE-cellulose filters and the radioactivity in the filtrate was determined by liquid scintillation spectrometry. Each series of determinations included positive controls of 5 and 50 μM curacin A. The inventors found no evidence that SR-7 could bind to the colchicine site of tubulin. […] The inventors propose that SR-7 may act at another site such as the previously characterized vinca alkaloid site.

Assay [4] relates to bovine brain tubulin. The assay can be described thus: GTP-induced tubulin assembly (turbidity). The assay is classed as biochemical. The method, then: Tubulin without microtubule-associated proteins was isolated from fresh bovine brains (Hamel E and Lin CM (1984). Separation of active tubulin and microtubule-associated proteins by ultracentrifugation and isolation of a component causing the formation of microtubule bundles. Biochemistry 23:4173-4184). Inhibition of assembly reactions was carried out as described previously (Verdier-Pinard P, Lai J-Y, Yoo H-D, Yu J, Marquez B, Nagle DG, Nambu M, White JD, Falck JR, Gerwick WH, Day BW and Hamel E (1998) Structure-activity analysis of the interaction of curacin A, the potent colchicine site antimitotic agent, with tubulin and effects of analogs on the growth of MCF-7 breast cancer cells. Mol Pharmacol 53:62-76.).
The inventors examined the ability of SR-7 to alter tubulin polymerization or depolymerization in vitro. FIG. 28, Panel A. Compounds (predissolved in DMSO) were preincubated with tubulin containing monosodium glutamate at 30 ° C. for 15 min. Samples were cooled to 0 ° C. and GTP was added. Samples were placed in a temperature-controlled multi-cuvette holder of a spectrophotometer held at 0 ° C. Baselines were established and temperature was rapidly raised to 30 ° C. Turbidity development in the cuvettes was measured at 350 nm. FIG. 28, Panel B. Compounds were added to the tubulin plus monosodium glutamate mixture at 0 ° C., placed in the spectrophotometer and temperature was raised to 30 ° C. Addition of 0.4 mM GTP to isolated bovine brain tubulin produced robust polymerization that began to plateau approximately 20 min after microtubule assembly commenced (Panel A).

The next assay deals with Bcl-2. As to the kind of experiment: Bcl-2 phosphorylation immunoblot in MCF-7 cells. It is filed as cell-based, human. An excerpt:
Attempts to determine the phosphorylation status of Bcl-2 in tsFT210 cells using two different antibodies were unsuccessful due to the antibodies' inability to detect mouse Bcl-2 or the lack of specificity. Therefore, phosphorylated and non-phosphorylated Bcl-2 was detected in lysates from human MCF-7 cells (American Type Culture Collection, Manassas, Va.) treated with microtubule perturbing agents. Equal amounts of protein were separated by electrophoresis on 15% SDS-PAGE followed by immunoblotting with an antihuman Bcl-2 antibody (sc-509, Santa Cruz Biotechnology). Positive antibody reactions were visualized using peroxidase-conjugated secondary antibodies (Jackson ImmunoResearch, West Grove, Pa.) and an enhanced chemiluminescence detection system (Renaissance, NEN, Boston, Mass.) according to manufacturer's instructions.
All known microtubule disrupting compounds cause hyperphosphorylation of the antiapoptotic protein Bcl-2 (Haldar S, Jena N and Croce CM (1995) Inactivation of bcl-2 by phospliorylation. Proc Natl Acad Sci USA 92:4507-4511 and Basu A and Haldar S (1998) Microtubule-damaging drugs trigger bcl2 phosphorylation-requirement of phosphorylation on both serine-70 and serine-87 residues of bcl2 protein. Intl J Oncol 13:659-664). Therefore, the phosphorylation status of Bcl-2 in cells treated with various compounds including SR-7 was examined and the results are illustrated in FIG. 29. Proteins from lysates of MCF-7 cells treated with 0.5 μM paclitaxel, 1 μM nocodozole, 1,μM vincristine and, 3 or 10 μM SR-7 were separated by electrophoresis on 15% SDS-PAGE followed by immunoblotting with an antibody to Bcl-2. The phosphorylated form of Bcl-2 (P) appeared as the upper bands and the underphosphorylated form (U) was the lower band.
In general terms: Immunoblotting shows a protein as a band on a membrane.

With `O=C1c2c(O)ccc(O)c2C2(Oc3cccc4cccc(c34)O2)[C@@H]2O[C@H]12` [Palmarumycin C3], the antifungal activity result in the assay with fungi is reported as “high antifungal activity”.

With `O=C1C=CC(=O)[C@@]23O[C@@]12C1(Oc2cccc4cccc(c24)O1)[C@@H]1O[C@@H]1[C@@H]3O` [Palmarumycin C10], the antifungal activity entry in the assay with fungi was “high antifungal activity”.

Consider `Oc1ccc(O)c2c1[C@H](O)[C@@H]1O[C@@H]1C21Oc2cccc3cccc(c23)O1` [Palmarumycin C12], for which the antifungal activity entry with fungi is on record as “high antifungal activity”.

Regarding `O=C1CC[C@@H](O)[C@@H]2C1=C(O)C=CC21Oc2cccc3cccc(c23)O1` [Palmarumycin CP4], the antifungal activity entry in the assay on fungi is “high antifungal activity”.

With `CCCCCCCCCC(=O)NC(CCC(=O)N(CCNC(=O)c1nc(-c2ccccc2)oc1-c1ccccc1)Cc1ccccc1)C(=O)O` (stereo not drawn) [SC-ααδ9, 4-(benzyl-(2-[ (2,5-diphenyl-oxazole-4-carbonyl)-amino]-ethyl)-carbamoyl)-2-decanoylamino butyric acid, reference compound], the “G2/M cell cycle transition” value in the assay on tsFT210 cells [1] (100 μM, Panel I) is reported as “G2/M inhibition”. Also, the G1 transition entry in the assay on tsFT210 cells [2] is listed as “caused a prominent G1 block”. The Cdk1 phosphorylation status entry in the assay with Cdk1 (100 IM, lane 8) was “yielded a hyperphosphorylated Cdk1”.

On to `C=CC[C@@H](CC/C(C)=C/C=C/CC/C=C\[C@@H]1CSC([C@@H]2C[C@@H]2C)=N1)OC` [curacin A], for which the “Percent inhibition of [3H]colchicine binding” value is reported as roughly 90% with bovine brain tubulin [3] (5 μM compound, 5 µM); 89.8 ± 0.6% with bovine brain tubulin [3] (5 μM compound, listed as Curacin A, 5 µM); 97.3 ± 3.1% in the assay with bovine brain tubulin [3] (50 μM compound). Besides, the results for the “inhibition of GTP-induced tubulin assembly” value in the assay with bovine brain tubulin [4] (1 μM) and in the assay with bovine brain tubulin [4] (5 μM) were 50% and “completely inhibited GTP-induced tubulin assembly”, respectively.

For the molecule `COC(=O)Nc1nc2cc(C(=O)c3cccs3)ccc2[nH]1` [nocodazole], the “G2/M cell cycle transition” value with tsFT210 cells [1] (1 μM) is reported as “blocked cell passage through G2/M”. Moreover, in the assay with Bcl-2 (1 μM nocodozole), the Bcl-2 phosphorylation entry is reported as “caused prominent phosphorylation of Bcl-2”. Further, the Cdk1 phosphorylation status entry in the assay with Cdk1 (1 μM) is “no hyperphosphorylation of Cdk1 was seen”.

For the molecule `CC(=O)O[C@H]1C(=O)[C@@]2(C)[C@H]([C@H](OC(=O)c3ccccc3)[C@]3(O)C[C@H](OC(=O)[C@H](O)[C@@H](NC(=O)c4ccccc4)c4ccccc4)C(C)=C1C3(C)C)[C@]1(OC(C)=O)CO[C@@H]1C[C@@H]2O` [paclitaxel], in the assay on Bcl-2 (0.5 μM), the Bcl-2 phosphorylation result was “caused prominent phosphorylation of Bcl-2”.

For the molecule `CC[C@]1(O)C[C@H]2CN(CCc3c([nH]c4ccccc34)[C@@](C(=O)OC)(c3cc4c(cc3OC)N(C=O)[C@H]3[C@@](O)(C(=O)OC)[C@H](OC(C)=O)[C@]5(CC)C=CCN6CC[C@]43[C@@H]65)C2)C1` [vincristine], the Bcl-2 phosphorylation entry with Bcl-2 (1 μM vincristine) is reported as “caused prominent phosphorylation of Bcl-2”.
